According to patent US10065990B2, “Cyclic peptide compound, and preparation method, pharmaceutical composition and use thereof” (HANGZHOU GUANYU BIO-MEDICAL CO., LTD, priority 2013, dated 2018):
Read-outs that look alike come from different tables or passages of the source.

Legend:
HDAC7 = biological target: T1, HDAC7 (Homo sapiens, UniProt Q8WUI4); test: HDAC biochemical activity measurement (fluorescent substrate deacetylation);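 also: fluorogenic deacetylation assay using acetyl-lysine substrate at 20 µM, enzyme and compound incubated 30 min at 37 °C, then developer added, fluorescence read at 360/460 nm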; details: HDAC7; 37° C. 30 minutes
T1 sequence (Q8WUI4 1-952): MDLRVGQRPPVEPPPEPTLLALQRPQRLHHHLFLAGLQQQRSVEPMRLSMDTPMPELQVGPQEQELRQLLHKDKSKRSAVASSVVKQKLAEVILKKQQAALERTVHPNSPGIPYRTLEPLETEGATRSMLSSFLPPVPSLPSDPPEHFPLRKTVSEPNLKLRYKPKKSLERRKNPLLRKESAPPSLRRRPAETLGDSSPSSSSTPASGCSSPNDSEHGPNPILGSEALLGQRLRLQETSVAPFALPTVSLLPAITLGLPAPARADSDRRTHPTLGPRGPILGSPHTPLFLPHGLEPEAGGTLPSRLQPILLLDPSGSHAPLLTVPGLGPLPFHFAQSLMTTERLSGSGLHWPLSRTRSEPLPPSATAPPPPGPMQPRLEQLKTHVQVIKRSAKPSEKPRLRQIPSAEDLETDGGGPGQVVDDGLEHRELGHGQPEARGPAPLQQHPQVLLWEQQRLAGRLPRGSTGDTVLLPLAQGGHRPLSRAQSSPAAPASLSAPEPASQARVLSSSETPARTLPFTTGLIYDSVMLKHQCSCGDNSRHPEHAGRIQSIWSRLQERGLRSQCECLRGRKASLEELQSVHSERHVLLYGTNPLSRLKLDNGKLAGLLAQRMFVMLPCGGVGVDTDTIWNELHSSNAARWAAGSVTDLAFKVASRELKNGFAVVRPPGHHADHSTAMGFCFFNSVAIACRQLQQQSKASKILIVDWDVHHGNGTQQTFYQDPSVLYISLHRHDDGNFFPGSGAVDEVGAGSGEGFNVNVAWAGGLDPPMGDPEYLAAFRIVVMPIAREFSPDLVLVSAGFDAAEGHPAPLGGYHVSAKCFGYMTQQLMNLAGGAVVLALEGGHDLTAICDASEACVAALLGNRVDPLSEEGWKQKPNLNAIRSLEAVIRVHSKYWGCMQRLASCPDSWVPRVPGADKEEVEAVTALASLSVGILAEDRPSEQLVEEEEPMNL

[1] = system: MCF-7 (human breast cancer cells); test: MTT cancer cell growth inhibition; format: cell-based; details: Homo sapiens, MCF7, 72 h, 72 hours incubation, read-out: GI50 MCF
Source text: (§1) MTT assay principle is yellow MTT can penetrate membrane into the cell, succinic dehydrogenase of the mitochondria in living cells can make exogenous MTT reduction of insoluble in water of blue-violet acicular formazan for crystallization and deposition in the cell, crystallization can be dissolved dimethyl sulfoxide (DMSO) solution, detected its absorbance at 490 nm/570 nm wavelength by enzyme-linked immunosorbent assay, which can reflect the number of cells.
(§2) Using DMEM+10% FBS culture medium or using 1640+10% FBS culture, respectively.
(§3) a) Cells were seeded in 96-well plates with the inoculation of 1500/well, 190 μl/hole, 37° C., 5% of CO2 incubator overnight;
(§4) b) The next day each well was added 10 μl of different drugs. The final concentration of drug was 10^−5˜10^−10M, three parallel holes; 37° C., 5% CO2 culture incubator for 72 hours incubation;
(§5) c) Per well was added 20 μl 5 mg/ml of MTT, 37° C., 5% CO2 culture incubator for 4 hours incubation;
(§6) d) The supernatant was discarded. Each well was added 100 μl of DMSO and oscillation;
(§7) e) 570 nm readings. Calculate cell viability. GI50 calculation based on the results.

[2] = system: K562 (human leukemia cells); test: MTT cancer cell growth inhibition; format: cell-based; details: MTT, 72 hours incubation, K562 cells; read-out: GI50 K562
Source text: as §1, §2, §3, §4, §5, §6, §7

[3] = system: MDA-MB-231 (breast cancer cells); test: MTT cancer cell growth inhibition; format: cell-based; details: read-out: GI50 MDA-MB-231; MTT, 72 hours incubation, MDA-MB-231 cells
Source text: as §1, §2, §3, §4, §5, §6, §7

[4] = system: KBM-5 (human chronic myelogenous leukemia); test: MTT cancer cell growth inhibition; format: cell-based; details: MTT, 72 hours incubation, KBM-5 cells, read-out: GI50 KBM-5
Source text: as §1, §2, §3, §4, §5, §6, §7

[5] = system: SGC-7901 (human gastric cancer cells); test: MTT cancer cell growth inhibition; format: cell-based; details: MTT, 72 hours incubation, SGC-7901 cells, read-out: GI50 SGC-7901
Source text: as §1, §2, §3, §4, §5, §6, §7

[6] = system: PANC-1 (Pac-1, human pancreatic cancer cells); test: MTT cancer cell growth inhibition; format: cell-based; details: Homo sapiens, PANC-1, 72 h, MTT, 72 hours incubation, read-out: GI50 PAN
Source text: as §1, §2, §3, §4, §5, §6, §7

[7] = system: H1975 (non-small cell lung adenocarcinoma); test: MTT cancer cell growth inhibition; format: cell-based; details: Homo sapiens, NCI-H1975, 72 h, MTT, 72 hours incubation, H1975 cells; read-out: GI50 H1975
Source text: as §1, §2, §3, §4, §5, §6, §7

[8] = system: BGC-823 (human gastric cancer cells); test: MTT cancer cell growth inhibition; format: cell-based; details: MTT, 72 hours incubation, read-out: GI50 BG
Source text: as §1, §2, §3, §4, §5, §6, §7

[9] = system: HCC827 (human non-small cell lung cancer cells); test: MTT cancer cell growth inhibition; format: cell-based; details: Homo sapiens, HCC827, 72 h, MTT, 72 hours incubation, HCC827 cells; read-out: GI50 HCC827
Source text: as §1, §2, §3, §4, §5, §6, §7

[10] = system: lncap (prostate cancer cells); test: MTT cancer cell growth inhibition; format: cell-based; details: MTT, 72 hours incubation, read-out: GI50 lnca
Source text: as §1, §2, §3, §4, §5, §6, §7

[11] = system: DU145 (human prostate cancer cells); test: MTT cancer cell growth inhibition; format: cell-based; details: MTT, 72 hours incubation, read-out: GI50 Du1
Source text: as §1, §2, §3, §4, §5, §6, §7

[12] = system: HT1080 (human fibrosarcoma cells); test: MTT cancer cell growth inhibition; format: cell-based; details: MTT, 72 hours incubation, read-out: GI50 HT1
Source text: as §1, §2, §3, §4, §5, §6, §7

[13] = system: U937 (human leukemia cells); test: MTT cancer cell growth inhibition; format: cell-based; details: Homo sapiens, U-937, 72 h, MTT, 72 hours incubation, read-out: GI50 U93
Source text: as §1, §2, §3, §4, §5, §6, §7

[14] = system: MOLT-4 (human acute lymphoblastic leukemia cells); test: MTT cancer cell growth inhibition; format: cell-based; details: MTT, 72 hours incubation, read-out: GI50 Mol
Source text: as §1, §2, §3, §4, §5, §6, §7

[15] = system: N-87 (human gastric cancer cells); test: MTT cancer cell growth inhibition; format: cell-based; details: MTT, 72 hours incubation, N-87 cells, read-out: GI50 N-87
Source text: as §1, §2, §3, §4, §5, §6, §7

[16] = system: Hela (human cervical cancer cells); test: MTT cancer cell growth inhibition; format: cell-based; details: MTT, 72 hours incubation, read-out: GI50 Hela
Source text: as §1, §2, §3, §4, §5, §6, §7

[17] = system: Huh-7 (human hepatoma cells); test: MTT cancer cell growth inhibition; format: cell-based; details: Homo sapiens, Huh-7, 72 h, MTT, 72 hours incubation, Huh-7 cells; read-out: GI50 Huh-7
Source text: as §1, §2, §3, §4, §5, §6, §7

[18] = system: A549 (human lung cancer cells); test: MTT cancer cell growth inhibition; format: cell-based; details: MTT, 72 hours incubation, read-out: GI50 A54
Source text: as §1, §2, §3, §4, §5, §6, §7

[19] = system: KBM5-T315I (human chronic myelogenous leukemia); test: MTT cancer cell growth inhibition; format: cell-based; details: MTT, 72 hours incubation, KBM5-T315I cells, read-out: GI50 KBM5-T315I
Source text: as §1, §2, §3, §4, §5, §6, §7

[20] = system: Bel-7402 (human hepatoma cells); test: MTT cancer cell growth inhibition; format: cell-based; details: MTT, 72 hours incubation, Bel-7402 cells, read-out: GI50 Bel-7402
Source text: as §1, §2, §3, §4, §5, §6, §7

For `C=C1NC(=O)c2cc(F)cc(n2)CNC(=O)C[C@@H](/C=C/CCS)OC(=O)[C@H](C(C)C)NC1=O` [Compound 132], the “IC50 HDAC7” value (HDAC7) was “no activity”, the GI50 [1] was 100 nM and the GI50 [2] was 48 nM. For the same molecule, the GI50 [3] was 16 nM, the GI50 ([4]; Homo sapiens, KBM5, 72 h) was 24 nM and the GI50 ([5]; Homo sapiens, SGC-7901, 72 h) was 28 nM. The GI50 [6] was 70 nM, the GI50 [7] was 28 nM and the GI50 ([8]; Homo sapiens, BGC-823, 72 h) was 40 nM. For the same molecule, the GI50 [9] was 52 nM, the GI50 [10] was 30 nM and the GI50 [11] was 150 nM. The GI50 [12] was 30 nM, the GI50 [13] was 40 nM and the GI50 [14] was 30 nM. For the same molecule, the GI50 ([15]; Homo sapiens, 72 h) was 57 nM, the GI50 ([16]; Homo sapiens, HeLa, 72 h) was 20 nM and the GI50 [17] was 26 nM. For the same molecule, the GI50 [18] was 20 nM, the GI50 [19] was 43 nM and the GI50 [20] was 77 nM.

`C/C=C1\NC(=O)c2cc(SC)cc(n2)CNC(=O)C[C@@H](/C=C/CCSC(C)=O)OC(=O)[C@H](C)NC1=O` [Compound 184] was tested, and the “IC50 HDAC7” value (HDAC7) was “no activity”, the GI50 [2] was 23 nM and the GI50 [3] was 74 nM. It also gave a GI50 [4] of 78 nM, a GI50 [5] of 11 nM and a GI50 ([6]; PANC-1 cells) of 60 nM. It also gave a GI50 [7] of 58 nM, a GI50 ([8]; BGC-823 cells) of 50 nM and a GI50 [9] of 62 nM. For the same molecule, the GI50 ([10]; lncap cells) was 20 nM, the GI50 ([11]; Homo sapiens, DU-145, 72 h, DU145 cells) was 60 nM and the GI50 ([12]; Homo sapiens, HT-1080, 72 h, HT1080 cells) was 80 nM. It also gave a GI50 ([13]; U937 cells) of 30 nM, a GI50 ([14]; Homo sapiens, MOLT-4, 72 h, MOLT-4 cells) of 30 nM and a GI50 [15] of 42 nM. For the same molecule, the GI50 ([16]; Hela cells) was 20 nM, the GI50 [17] was 38 nM and the GI50 ([18]; Homo sapiens, A549, 72 h, A549 cells) was 110 nM. It also gave a GI50 ([19]; Homo sapiens, 72 h) of 43 nM and a GI50 ([20]; Homo sapiens, Bel-7402, 72 h) of 56 nM.
